In patent US10618869B2, “Oligo-benzamide compounds and their use” (The Board of Regents of the University of Texas System, priority 2010, dated 2020):
Entries after “also recorded” stand apart in the source; their conditions may differ.

Experiments:
[1] = system: PCa cell lines that contain AR; test: DHT-induced proliferation of prostate cancer cells (MTT assay); type: cell-based
Procedure: (§1) FIGS. 10A-E. D2 blocks proliferation of prostate cancer cells in vitro and in vivo (a) Effect of pretreatment with 100 nM of D1 and D2 on DHT-induced proliferation in multiple prostate cancer cell lines in MTT assay. Numbers are normalized to a baseline of 100, which represents the untreated rate of proliferation. (b) Effect of pretreatment with 100 nM of D1 and D2 on DHT-induced proliferation in LNCaPcells on a Cyquant assay. (c) Dose dependent curve of D2 on proliferation of LAPC4 cells. (d) Rescue of DHT induced proliferation by overexpression of PELP1 following suppression of DHT induced proliferation with 100 nM of D2. (e). Effect of direct intratumoral injections of D1 and D2 on the proliferation of prostate cancer xenografts in animal models: Following establishment of subcutaneous xenografts in animal models, daily direct intratumoral injections of D1 and D2 were performed. Bioluminesence imaging was used to track the growth of the tumors and the effect of D1 and D2 quantitated as shown in the graph.
(§2) The importance of PELP1 and AR interaction on DHT-mediated proliferation of prostate cancer cells were confirmed using rescue experiments, where D2 suppression of DHT-mediated proliferation was overcome by overexpression of PELP1 in LNCaP PCa cells.
(§3) In this experiment, cells were plated (2-10×10^3/well) in 96 well plates and subjected to androgen deprivation for 48 hours with phenol-red free RPMI and 1% charcoal stripped fetal bovine serum (CSF). Cells were then treated with either ethanol, EGF or DHT as a positive control for 48 hours. Peptidomimetics were added 2 hours prior to treatment. Cell proliferation was measured using the MTT colorimetric assay.
as §3, with “Cells” for “In this experiment, cells”, “96-well” for “96 well”, “ethanol” for “ethanol, EGF”, “hours” for “hours.”

[2] = system: DHT-regulated transcripts; test: DHT-regulated transcripts, Illumina platform, LNCaP cells; type: cell-based; conditions: of the 341 transcripts significantly upregulated by DHT
Procedure: FIG. 8. Effect of D2 on DHT-induced transcription: RNA from LNCaP cells untreated or treated with DHT in the absence and presence of D2 were evaluated by the Illumina platform for DHT-regulated transcripts. […] Expression levels of selected genes are shown in the right panel, including AR-regulated genes and those involved in cell proliferation.
(§4) FIG. 8 confirms these findings by QPCR experiment evaluating the effect of D1 and D2 on DHT-induced TMPRSS and PSA gene expression at the RNA level in LNCaP cells (bottom left panel) and by western blot analyses as evaluated by the effect of D1 and D2 on the expression of PSA, androgen receptor and actin in LAPC4 cells at the protein level. […] Confirmation of these findings were obtained by QPCR and western blot analyses.

prostate cancer cells = test: Toxicity in vitro and in vivo
Source text: The peptidomimetics of the present invention are non-toxic under in vitro and in vivo conditions. The development of these peptidomimetics represents a quantum leap in the development of a drug to target AR signaling. […] In addition to improvements in the helical face and presentation of the leucines, the inventors have proven efficacy of this system against prostate cancer cell proliferation both in vitro and in vivo. Thus, in contrast to existing technology, the inventors have developed and tested an active peptidomimetic against prostate cancer and other androgen receptor involved cancers.
They have shown that this synthetic peptidomimetic D2 is capable of blocking AR-PELP-1 interaction, nuclear translocation of AR, AR mediated genomic signaling as well as DHT-mediated proliferation of prostate cancer cells in vitro. The IC50 of D2 appears to be around 40 nM. The effect of the D2 peptidomimetic appears to be specific to blocking AR-PELP-1 interaction, as overexpression of AR or PELP-1 may overcome D2-mediated blockade. […] In comparison, administration of either control peptidomimetics or control soluent has no effect on the growth of prostate cancer cells in vitro or in vivo. In addition, the inventors have generated and tested hundreds of variants of D2 and have identified related peptidomimetics with similar or equivalent potency.

[3] = system: AR binding on PSA promoter; test: ChIP assay of AR binding on PSA promoter; type: cell-based
Source text: (§5) FIG. 9. […] This effect of D2 could be rescued by overexpression of AR (bottom left panel) or PELP1 (bottom right panel).
(§6) At the protein level, D2, but not D1, was able to block DHT-induced expression of PSA protein. Again, the suppresion of DHT-induced transcription from an ARE could be overcome by overexpression of either AR or PELP1 ([…]). Overexpression of PELP1 was able to rescue the D2-mediated suppression of DHT-induced transcription nearly back to baseline.

[4] = Stability of D2 in culture and in LNCaP cell lysate (HPLC); type: in vitro ADME
Source text: FIGS. 4A-F. (FIG. 4A) Chemical structure of the bis-benzamide (D2). (FIG. 4B) the lowest-energy conformation of D2. (FIG. 4C) the stereoview of the superimposition of D2 on a helical turn.

LNCaP cells = test: Uptake of fluorescein analogues of D2 by LNCaP cells; type: cell-based; conditions: summary statement
Procedure: FIGS. 14A-C. Effect of chemical conjugation of Fluorescein to D2 at the amino and carboxy terminus (FIG. 14A) on uptake by LnCaP cells at 4 hours (FIG. 14B) and on DHT-induced proliferation of PCa cells (FIG. 14C).
In FIG. 14, two fluorescent analogues of D2 were prepared, one by introducing a fluorescein moiety to the C-terminus of D2 (CF1-D2) and the other by placing it at the N-terminus (CF2-D2).

PSA protein = test: DHT-induced PSA protein expression (western blot); type: cell-based; conditions: protein level
Source text: as §4, §6

[5] = system: prostate cancer xenografts; test: Subcutaneous prostate cancer xenografts; type: in vivo, nude mice
Procedure: as §1
They have shown that this synthetic peptidomimetic D2 is capable of blocking AR-PELP-1 interaction, nuclear translocation of AR, AR mediated genomic signaling as well as DHT-mediated proliferation of prostate cancer cells in vitro. The IC50 of D2 appears to be around 40 nM. […]

[6] = system: AR-negative PCa cell lines such as DU145 or PC3; test: DHT-induced proliferation of AR-negative PCa cell lines; type: cell-based
Procedure: as §1, §2

erk = erk phosphorylation after serum starvation (western blot, FIG. 16); type: cell-based; conditions: following serum starvation, D1 at higher concentrations (500 nM)
Procedure: FIG. 16. Evidence for utility of higher concentrations of D1 in blocking erk phosphorylation: following serum starvation, cells were treated with either D1 or D2 and assessed for their ability to block erk phosphorylation.
D2, and to a less extent D1, targets a validated target in prostate cancer, has the potential to be an AR-selective modulator, provides a novel mechanism of action, and will likely provide a sustained effect in the context of therapy.

PSA-luciferase promoter = test: DHT-induced transcription from PSA-luciferase promoter; type: cell-based; conditions: LAPC4 cells
Source text: as §5, §6

COC(=O)c1ccc(NC(=O)c2ccc([N+](=O)[O-])c(OCC(C)C)c2)c(OCC(C)C)c1 [D2]
activity on the proliferation of prostate cancer cells (FIGS. 17, 19A-N) ([1]; DHT-induced proliferation, MTT assay, structure-function series): good activity | DHT-induced proliferation of PCa cells ([1]; LNCaP, LAPC4, C4-2, RWPE-1, CWR22v1, VCaP, MDAPCa 2b, pretreatment (100 nM in FIG. 10)): prevented; also recorded: does block | IC50 ([1]; MTT assays, in vitro, read-out: IC50, DHT-mediated proliferation of PCa cells): ~40 nM | DHT-upregulated genes reduced back to baseline [2]: 219 genes | toxicity (prostate cancer cells): non-toxic to prostate cancer cells | DHT-induced AR binding on PSA promoter (ChIP) [3]: blocked DHT-induced AR binding; also recorded: blocked AR binding to its cognate DNA sequence | stability in cell lysate ([4]; LNCaP cell lysate, 37° C., 7 days): stable in cell lysate of LNCaP over 7 days | stability in culture (HPLC) ([4]; in culture, FIG. 4E): single peak on the HPLC | entry into prostate cancer cells (LNCaP cells): enters the prostate cancer cells | DHT-induced expression of PSA protein (PSA protein): able to block | growth of prostate cancer cells implanted subcutaneously ([5]; nude mice, intratumoral or intraperitoneal administration): significantly abrogate the growth | AR-PELP1 complex formation in xenograft tumors ([5]; protein extracts of tumors after daily intratumoral injections): biologically active in blocking AR-PELP1 interaction; also recorded: able to block | DHT-induced proliferation of AR-negative PCa cell lines [6]: but not AR-negative PCa cell lines | erk activation / phosphorylation (erk): blocks at lower concentrations | DHT-induced transcription from PSA-luciferase promoter (PSA-luciferase promoter): able to block; also recorded: block DHT-Induced gene expression
